Patent US12655116B2, “Substituted isophthalic acid diamides” (Bayer Aktiengesellschaft, priority 2020, dated 2026)

Tests used:
[1] = tested on: AMARE; experiment: Post-emergence herbicidal action against AMARE; assay type: in vivo, Amaranthus retroflexus; details: 20 g/ha, visual assessment about 3 weeks after treatment, 100% = plants have died, 0% = like control plants
In short: (§1)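 Greenhouse plants in sandy loam were sprayed at the one-leaf stage, 2 to 3 weeks after sowing, with WP or EC formulations as aqueous suspension or emulsion (600 to 800 l/ha water, 0.2% wetting agent). Visual damage was scored about 3 weeks later versus untreated controls, 0% = like control, 100% = dead.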

[2] = tested on: ALOMY; experiment: Post-emergence herbicidal action against ALOMY; assay type: in vivo, Alopecurus myosuroides; details: dosage 20 g/ha, visual assessment about 3 weeks after treatment vs untreated controls
In short: as §1

[3] = tested on: AMARE; experiment: Pre-emergence herbicidal action against AMARE; assay type: in vivo, Amaranthus retroflexus
In short: (§2)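 Pre-emergence soil-surface spray of formulated compound (WP or EC; 600 to 800 l/ha; 0.2% wetting agent) over seeds sown in sandy loam. After 3 weeks under greenhouse conditions, damage is estimated visually in percent against untreated plants.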

[4] = tested on: AVEFA; experiment: Pre-emergence herbicidal action against AVEFA; assay type: in vivo, Avena fatua; details: 80 g/ha, pre-emergence
In short: as §2

[5] = tested on: VIOTR; experiment: Pre-emergence herbicidal action against VIOTR; assay type: in vivo, Viola tricolor
In short: as §2

[6] = tested on: VERPE; experiment: Post-emergence herbicidal action against VERPE; assay type: in vivo, Veronica persica
In short: as §1

[7] = tested on: PHBPU; experiment: Post-emergence herbicidal action against PHBPU; assay type: in vivo, Pharbitis purpurea
In short: as §1

[8] = tested on: ECHCG; experiment: Post-emergence herbicidal action against ECHCG; assay type: in vivo, Echinochloa crus-galli
In short: as §1

[9] = tested on: ECHCG; experiment: Pre-emergence herbicidal action against ECHCG; assay type: in vivo, Echinochloa crus-galli
In short: as §2

[10] = tested on: VIOTR; experiment: Post-emergence herbicidal action against VIOTR; assay type: in vivo, Viola tricolor
In short: as §1

[11] = tested on: DIGSA; experiment: Post-emergence herbicidal action against DIGSA; assay type: in vivo, Digitaria sanguinalis
In short: as §1

[12] = tested on: PHBPU; experiment: Pre-emergence herbicidal action against PHBPU; assay type: in vivo, Pharbitis purpurea
In short: as §2

[13] = tested on: DIGSA; experiment: Pre-emergence herbicidal action against DIGSA; assay type: in vivo, Digitaria sanguinalis
In short: as §2

[14] = tested on: SETVI; experiment: Pre-emergence herbicidal action against SETVI; assay type: in vivo, Setaria viridis
In short: as §2

[15] = tested on: ABUTH; experiment: Pre-emergence herbicidal action against ABUTH; assay type: in vivo, Abutilon theophrasti
In short: as §2

[16] = tested on: VERPE; experiment: Pre-emergence herbicidal action against VERPE; assay type: in vivo, Veronica persica; details: dosage 80 g/ha
In short: as §2

[17] = tested on: ALOMY; experiment: Pre-emergence herbicidal action against ALOMY; assay type: in vivo, Alopecurus myosuroides; details: 80 g/ha, pre-emergence, scored visually after 3 weeks vs untreated controls (100% = plants have died, 0% = like control plants)
In short: as §2

[18] = tested on: MATIN; experiment: Pre-emergence herbicidal action against MATIN; assay type: in vivo, Matricaria inodora
In short: as §2

[19] = tested on: ABUTH; experiment: Post-emergence herbicidal action against ABUTH; assay type: in vivo, Abutilon theophrasti; details: visual assessment about 3 weeks after treatment vs untreated controls
In short: as §1

[20] = tested on: SETVI; experiment: Post-emergence herbicidal action against SETVI; assay type: in vivo, Setaria viridis
In short: as §1

[21] = tested on: MATIN; experiment: Post-emergence herbicidal action against MATIN; assay type: in vivo, Matricaria inodora; details: Tripleurospermum inodorum, 504 h
In short: as §1

[22] = 20 g/ha, scored visually after 3 weeks vs untreated controls, 100% = plants have died, 0% = like control plants
[23] = 80 g/ha, scored visually after 3 weeks vs untreated controls (100% = plants have died, 0% = like control plants)
[24] = dosage 20 g/ha, scored visually after 3 weeks vs untreated controls, 100% = plants have died, 0% = like control plants
[25] = Ipomoea purpurea, 504 h, dosage 20 g/ha
[26] = Setaria viridis, 504 h, dosage 20 g/ha

## Cn1nnnc1NC(=O)c1ccc(C(F)F)c(C(=O)NCC2CC2)c1Br [Example 1-228]
[1]
  Post-emergence action at 20 g/ha against AMARE in %: 90%
[2]
  Post-emergence action against ALOMY in %: 90%
[3]; [22]
  Pre-emergence action against AMARE in %: 100%
[3]; [23]
  Pre-emergence action against AMARE in %: 100%
[4]
  Pre-emergence action against AVEFA in %: 90%
[5]; dosage 20 g/ha
  Pre-emergence action against VIOTR in %: 90%
[5]; dosage 80 g/ha
  Pre-emergence action against VIOTR in %: 100%
[6]; 20 g/ha
  Post-emergence action against VERPE in %: 90%
[7]; dosage 5 g/ha
  Post-emergence action against PHBPU in %: 80%
[7]; dosage 20 g/ha
  Post-emergence action against PHBPU in %: 80%
[8]; dosage 20 g/ha
  Post-emergence action against ECHCG in %: 80%
[9]; 20 g/ha
  Pre-emergence action against ECHCG in %: 90%
[9]; 80 g/ha
  Pre-emergence action against ECHCG in %: 100%
[10]; 20 g/ha
  Post-emergence action against VIOTR in %: 80%
[11]; 5 g/ha
  Post-emergence action against DIGSA in %: 90%
[11]; 20 g/ha
  Post-emergence action against DIGSA: 90%
[12]; dosage 80 g/ha
  Pre-emergence action against PHBPU in %: 90%
[13]; dosage 20 g/ha
  Pre-emergence action against DIGSA in %: 100%
[13]; dosage 80 g/ha
  Pre-emergence action against DIGSA in %: 100%
[14]; dosage 80 g/ha
  Pre-emergence action against SETVI in %: 100%
[15]; [23]
  Pre-emergence action against ABUTH (herbicidal activity): 100%
[15]; [24]
  Pre-emergence action against ABUTH (herbicidal activity in percent): 100%
[16]
  Pre-emergence action against VERPE in %: 90%
[17]
  Pre-emergence action against ALOMY (herbicidal activity): 90%
[18]; dosage 20 g/ha
  Pre-emergence action against MATIN in %: 80%
[18]; dosage 80 g/ha
  Pre-emergence action against MATIN in %: 100%

## Cn1nnnc1NC(=O)c1ccc(C(F)F)c(C(=O)NCC(F)F)c1Br [Example 1-230]
[1]
  Post-emergence action at 20 g/ha against AMARE in %: 100%
[2]
  Post-emergence action against ALOMY in %: 90%
[3]; [22]
  Pre-emergence action against AMARE in %: 100%
[3]; [23]
  Pre-emergence action against AMARE in %: 100%
[4]
  Pre-emergence action against AVEFA in %: 90%
[5]; dosage 20 g/ha
  Pre-emergence action against VIOTR in %: 100%
[5]; dosage 80 g/ha
  Pre-emergence action against VIOTR in %: 100%
[6]; 20 g/ha
  Post-emergence action against VERPE in %: 80%
[8]; dosage 5 g/ha
  Post-emergence action against ECHCG in %: 80%
[8]; dosage 20 g/ha
  Post-emergence action against ECHCG in %: 80%
[9]; 80 g/ha
  Pre-emergence action against ECHCG in %: 90%
[11]; 20 g/ha
  Post-emergence action against DIGSA: 90%
[12]; dosage 80 g/ha
  Pre-emergence action against PHBPU in %: 90%
[13]; dosage 20 g/ha
  Pre-emergence action against DIGSA in %: 90%
[13]; dosage 80 g/ha
  Pre-emergence action against DIGSA in %: 100%
[14]; dosage 20 g/ha
  Pre-emergence action against SETVI in %: 90%
[14]; dosage 80 g/ha
  Pre-emergence action against SETVI in %: 100%
[15]; [23]
  Pre-emergence action against ABUTH (herbicidal activity): 100%
[15]; [24]
  Pre-emergence action against ABUTH (herbicidal activity in percent): 90%
[16]
  Pre-emergence action against VERPE in %: 100%
[17]
  Pre-emergence action against ALOMY (herbicidal activity): 90%
[18]; dosage 20 g/ha
  Pre-emergence action against MATIN in %: 90%
[18]; dosage 80 g/ha
  Pre-emergence action against MATIN in %: 100%

## COCCNC(=O)c1c(C(F)F)ccc(C(=O)Nc2nnnn2C)c1Cl [Example 1-156]
[1]
  Post-emergence action at 20 g/ha against AMARE in %: 90%
[2]
  Post-emergence action against ALOMY in %: 80%
[3]; [22]
  Pre-emergence action against AMARE in %: 100%
[3]; [23]
  Pre-emergence action against AMARE in %: 100%
[5]; dosage 80 g/ha
  Pre-emergence action against VIOTR in %: 100%
[6]; 20 g/ha
  Post-emergence action against VERPE in %: 80%
[7]; dosage 20 g/ha
  Post-emergence action against PHBPU in %: 90%
[8]; dosage 5 g/ha
  Post-emergence action against ECHCG in %: 80%
[8]; dosage 20 g/ha
  Post-emergence action against ECHCG in %: 90%
[9]; 80 g/ha
  Pre-emergence action against ECHCG in %: 100%
[19]; dosage 5 g/ha
  Post-emergence action against ABUTH in %: 90%
[19]; dosage 20 g/ha
  Post-emergence action against ABUTH in %: 90%
[11]; 20 g/ha
  Post-emergence action against DIGSA: 90%
[12]; dosage 80 g/ha
  Pre-emergence action against PHBPU in %: 80%
[13]; dosage 20 g/ha
  Pre-emergence action against DIGSA in %: 100%
[13]; dosage 80 g/ha
  Pre-emergence action against DIGSA in %: 100%
[14]; dosage 80 g/ha
  Pre-emergence action against SETVI in %: 100%
[20]; dosage 20 g/ha
  Post-emergence action against SETVI in %: 80%
[15]; [23]
  Pre-emergence action against ABUTH (herbicidal activity): 100%
[17]
  Pre-emergence action against ALOMY (herbicidal activity): 90%
[18]; dosage 20 g/ha
  Pre-emergence action against MATIN in %: 90%
[18]; dosage 80 g/ha
  Pre-emergence action against MATIN in %: 100%

## CCNC(=O)c1c(C(F)(F)F)ccc(C(=O)Nc2nnnn2C)c1OC [Example 1-57]
[1]; Amaranthus retroflexus, 504 h
  pest or weed control at 20 g/ha: 100%
[2]; Alopecurus myosuroides, 504 h
  pest or weed control at 20 g/ha: 80%
[3]; Amaranthus retroflexus, 504 h, 20 g/ha, scored visually after 3 weeks vs untreated controls, 100% = plants have died, 0% = like control plants
  pest or weed control at 20 g/ha: 100%
[3]; Amaranthus retroflexus, 504 h, 80 g/ha, scored visually after 3 weeks vs untreated controls, 100% = plants have died, 0% = like control plants
  pest or weed control at 80 g/ha: 100%
[4]; Avena fatua, 504 h
  pest or weed control at 80 g/ha: 90%
[5]; Viola tricolor, 504 h, dosage 20 g/ha
  pest or weed control at 20 g/ha: 100%
[5]; Viola tricolor, 504 h, dosage 80 g/ha
  pest or weed control at 80 g/ha: 100%
[6]; Veronica persica, 504 h, 5 g/ha
  pest or weed control at 5 g/ha: 80%
[6]; Veronica persica, 504 h, 20 g/ha
  pest or weed control at 20 g/ha: 90%
[21]; dosage 5 g/ha
  pest or weed control at 5 g/ha: 80%
[21]; dosage 20 g/ha
  pest or weed control at 20 g/ha: 90%
[7]; [25]
  pest or weed control at 20 g/ha: 90%
[8]; Echinochloa crus-galli, 504 h, dosage 5 g/ha
  pest or weed control at 5 g/ha: 80%
[8]; Echinochloa crus-galli, 504 h, dosage 20 g/ha
  pest or weed control at 20 g/ha: 100%
[9]; Echinochloa crus-galli, 504 h, 20 g/ha
  pest or weed control at 20 g/ha: 90%
[9]; Echinochloa crus-galli, 504 h, 80 g/ha
  pest or weed control at 80 g/ha: 90%
[10]; Viola tricolor, 504 h, 5 g/ha
  pest or weed control at 5 g/ha: 100%
[10]; Viola tricolor, 504 h, 20 g/ha
  pest or weed control at 20 g/ha: 100%
[19]; Abutilon theophrasti, 504 h, dosage 5 g/ha
  pest or weed control at 5 g/ha: 90%
[19]; Abutilon theophrasti, 504 h, dosage 20 g/ha
  pest or weed control at 20 g/ha: 90%
[11]; Digitaria sanguinalis, 504 h, 5 g/ha
  pest or weed control at 5 g/ha: 100%
[11]; Digitaria sanguinalis, 504 h, 20 g/ha
  pest or weed control at 20 g/ha: 100%
[12]; [25]
  pest or weed control at 20 g/ha: 80%
[12]; Ipomoea purpurea, 504 h, dosage 80 g/ha
  pest or weed control at 80 g/ha: 80%
[13]; Digitaria sanguinalis, 504 h, dosage 20 g/ha
  pest or weed control at 20 g/ha: 100%
[13]; Digitaria sanguinalis, 504 h, dosage 80 g/ha
  pest or weed control at 80 g/ha: 100%
[14]; [26]
  pest or weed control at 20 g/ha: 90%
[14]; Setaria viridis, 504 h, dosage 80 g/ha
  pest or weed control at 80 g/ha: 100%
[20]; Setaria viridis, 504 h, dosage 5 g/ha
  pest or weed control at 5 g/ha: 100%
[20]; [26]
  pest or weed control at 20 g/ha: 100%
[15]; Abutilon theophrasti, 504 h, 80 g/ha, scored visually after 3 weeks vs untreated controls (100% = plants have died, 0% = like control plants)
  pest or weed control at 80 g/ha: 100%
[15]; Abutilon theophrasti, 504 h, dosage 20 g/ha, scored visually after 3 weeks vs untreated controls, 100% = plants have died, 0% = like control plants, read-out: Pre-emergence action against ABUTH (herbicidal activity in percent)
  pest or weed control at 20 g/ha: 100%
[16]; Veronica persica, 504 h
  pest or weed control at 80 g/ha: 80%
[17]; Alopecurus myosuroides, 504 h
  pest or weed control at 80 g/ha: 80%
[18]; Tripleurospermum inodorum, 504 h, dosage 20 g/ha
  pest or weed control at 20 g/ha: 90%
[18]; Tripleurospermum inodorum, 504 h, dosage 80 g/ha
  pest or weed control at 80 g/ha: 100%
